Values quoted from earlier work as cited in US10755801B2, “Identifying peptides having T-cell-exposed motifs with known frequency of occurrence in a reference database” (IOGENETICS, LLC, priority 2014, dated 2020).
Ends that are not written are not given here.

System: CD8+ responses, HLA A 0201 restricted
Conditions: MART-1 peptides, A*0201, melanoma patients; Kawakami

GIGILTVIL
CD8+ T-cell response: stimulated a response
